Measurements published in patent publication US8609610B2, “Inhibitors of the trypsin-like site of the proteasome and methods of use thereof” (Trustees of Dartmouth College, priority 2011, dated 2013).

Assays:
Experiment in all cases: ALAMAR BLUE cell viability assay
Assay type in all cases: cell-based
MM1.R cells = conditions: LU-005 0.004 μM 1 h, then 48 h
Method: (§1) RPMI-8226 and NCI-H929 cells were cultured in RPMI-1640 supplemented with 10% fetal bovine serum, penicillin, streptomycin, and plasmocin in 5% CO2 humidified incubator. HEK-293T cells were cultured in DMEM containing 10% fetal calf serum, 10 units/mL penicillin, and 10 μg/mL streptomycin in a 7% CO2 humidified incubator. Viability of multiple myeloma cells was measured with ALAMAR BLUE mitochondrial dye conversion assay. Viability of peripheral blood mononuclear cells (PBMNCs) was measured using CELL TITER-GLO luminescent cell viability assay (Promega), which is based on quantification of ATP present in the cells. Caspase-3/7 activity was measured using APO-ONE 3/7 homogeneous assay (Promega).

NCI-H929 cells = conditions: NCI-H929, then 48 h
Method: as §1

KMS-12-BM cells = conditions: then 48 h
Method: as §1

KMS-18 cells = conditions: then 48 h
Method: as §1

RPMI-8226 cells = conditions: RPMI-8226, then 48 h
Method: as §1

For CC(C)C[C@H](NC(=O)[C@H](Cc1c(F)c(F)c(F)c(F)c1F)NC(=O)[C@H](Cc1ccccc1)NC(=O)[C@H](Cc1ccccc1)N=[N+]=[N-])C(=O)[C@@]1(C)CO1 [LU-005], the “Viability +NC-002 & NC-001” value (MM1.R cells) was 26 ± 6 % control, the “Viability +NC-022” value (MM1.R cells) was 66 ± 1 % control and the “Viability −NC-022” value (MM1.R cells) was 102 ± 4 % control. The “Viability +NC-002 & NC-001” value (NCI-H929 cells; LU-005 0.0014 μM 1 h) was 50 ± 17 % control, the “Viability +NC-022” value (NCI-H929 cells; LU-005 0.0014 μM 1 h) was 77 ± 2 % control and the “Viability −NC-022” value (NCI-H929 cells; LU-005 0.0014 μM 1 h) was 97 ± 9 % control. The “Viability +NC-002 & NC-001” value (NCI-H929 cells; LU-005 0.004 μM 1 h) was 36 ± 14 % control, the “Viability +NC-022” value (NCI-H929 cells; LU-005 0.004 μM 1 h) was 69 ± 0 % control and the “Viability −NC-022” value (NCI-H929 cells; LU-005 0.004 μM 1 h) was 100 ± 13 % control. For the same compound, the “Viability +NC-002 & NC-001” value (KMS-12-BM cells; LU-005 0.037 μM 1 h) was 50 ± 2 % control, the “Viability +NC-022” value (KMS-12-BM cells; LU-005 0.037 μM 1 h) was 90 ± 5 % control and the “Viability −NC-022” value (KMS-12-BM cells; LU-005 0.037 μM 1 h) was 89 ± 8 % control. For the same compound, the “Viability +NC-002 & NC-001” value (KMS-12-BM cells; LU-005 0.33 μM 1 h) was 2 ± 0 % control, the “Viability +NC-022” value (KMS-12-BM cells; LU-005 0.33 μM 1 h) was 12 ± 2 % control and the “Viability −NC-022” value (KMS-12-BM cells; LU-005 0.33 μM 1 h) was 80 ± 9 % control. The “Viability +NC-002 & NC-001” value (KMS-12-BM cells; LU-005 1.0 μM 1 h) was 1 ± 0 % control, the “Viability +NC-022” value (KMS-12-BM cells; LU-005 1.0 μM 1 h) was 1.5 ± 0.1 % control and the “Viability −NC-022” value (KMS-12-BM cells; LU-005 1.0 μM 1 h) was 27 ± 6 % control. For the same compound, the “Viability +NC-002 & NC-001” value (KMS-18 cells; LU-005 0.037 μM 1 h) was 79 ± 14 % control, the “Viability +NC-022” value (KMS-18 cells; LU-005 0.037 μM 1 h) was 104 ± 3 % control and the “Viability −NC-022” value (KMS-18 cells; LU-005 0.037 μM 1 h) was 108 ± 1 % control. The “Viability +NC-002 & NC-001” value (KMS-18 cells; LU-005 0.33 μM 1 h) was 33 ± 20 % control, the “Viability +NC-022” value (KMS-18 cells; LU-005 0.33 μM 1 h) was 106 ± 16 % control and the “Viability −NC-022” value (KMS-18 cells; LU-005 0.33 μM 1 h) was 108 ± 0 % control. For the same compound, the “Viability +NC-002 & NC-001” value (KMS-18 cells; LU-005 1.0 μM 1 h) was 8 ± 4 % control, the “Viability +NC-022” value (KMS-18 cells; LU-005 1.0 μM 1 h) was 29 ± 12 % control and the “Viability −NC-022” value (KMS-18 cells; LU-005 1.0 μM 1 h) was 88 ± 16 % control. For the same compound, the “Viability +NC-002 & NC-001” value (KMS-18 cells; LU-005 3.0 μM 1 h) was 1 ± 0.1 % control, the “Viability +NC-022” value (KMS-18 cells; LU-005 3.0 μM 1 h) was 24 ± 8 % control and the “Viability −NC-022” value (KMS-18 cells; LU-005 3.0 μM 1 h) was 72 ± 2 % control. For the same compound, the “Viability +NC-002 & NC-001” value (KMS-18 cells; LU-005 9.0 μM 1 h) was 0.8 ± 0.2 % control, the “Viability +NC-022” value (KMS-18 cells; LU-005 9.0 μM 1 h) was 17.5 ± 7.5 % control and the “Viability −NC-022” value (KMS-18 cells; LU-005 9.0 μM 1 h) was 45 ± 8 % control. For the same compound, the “Viability +NC-002 & NC-001” value (RPMI-8226 cells; LU-005 0.037 μM 1 h) was 76 ± 3 % control, the “Viability +NC-022” value (RPMI-8226 cells; LU-005 0.037 μM 1 h) was 104 ± 5 % control and the “Viability −NC-022” value (RPMI-8226 cells; LU-005 0.037 μM 1 h) was 109 ± 2 % control. For the same compound, the “Viability +NC-002 & NC-001” value (RPMI-8226 cells; LU-005 0.33 μM 1 h) was 4.6 ± 0.7 % control, the “Viability +NC-022” value (RPMI-8226 cells; LU-005 0.33 μM 1 h) was 31 ± 9 % control and the “Viability −NC-022” value (RPMI-8226 cells; LU-005 0.33 μM 1 h) was 94 ± 1 % control. For the same compound, the “Viability +NC-002 & NC-001” value (RPMI-8226 cells; LU-005 1.0 μM 1 h) was 1 ± 0 % control, the “Viability +NC-022” value (RPMI-8226 cells; LU-005 1.0 μM 1 h) was 6 ± 3 % control and the “Viability −NC-022” value (RPMI-8226 cells; LU-005 1.0 μM 1 h) was 10 ± 10 % control.
